Data: patent publication US6544985B2, “Dihydro-benzo [b][1,4]diazepin-2-one derivatives” (Hoffman-La Roche Inc., priority 2001, dated 2003)

| SMILES | melting point [°C] |
| --- | --- |
| CC(C)N(C)c1cc2c(cc1C(F)(F)F)NC(=O)CC(c1cccc(-n3nncc3CNC3CC3)c1)=N2 [Example 157, 4-[3-(5-Cyclopropylaminomethyl-[1,2,3]triazol-1-yl)-phenyl]-7-(isopropyl-methyl-amino)-8-trifluoromethyl-1,3-dihydro-benzo[b][1,4]diazepin-2-one] | 178 |
| Cc1cc2c(cc1N(C)CC(C)C)N=C(c1cccc(-n3ncnc3CN3CCCC3)c1)CC(=O)N2 [Example 158, 7-(Isobutyl-methyl-amino)-8-methyl-4-[3-(5-pyrrolidin-1-ylmethyl-[1,2,4]triazol-1-yl)-phenyl]-1,3-dihydro-benzo[b][1,4]diazepin-2-one] | 164 |
| Cc1cc2c(cc1N(C)CC(C)C)N=C(c1cccc(-n3ncnc3CNC3CC3)c1)CC(=O)N2 [Example 159, 4-[3-(5-Cyclopropylaminomethyl-[1,2,4]triazol-1-yl)-phenyl]-7-(isobutyl-methyl-amino)-8-methyl-1,3-dihydro-benzo[b][1,4]diazepin-2-one] | 114 |
| Cc1cc(-c2cccc(C3=Nc4cc(NC(C)C)c(Cl)cc4NC(=O)C3)c2)on1 [Example 160, 8-Chloro-7-isopropylamino-4-[3-(3-methyl-isoxazol-5-yl)-phenyl]-1,3-dihydro-benzo[b][1,4]diazepin-2-one] | 225 |
| CC(C)Nc1cc2c(cc1Cl)NC(=O)CC(c1cccc(-n3nncc3CO)c1)=N2 [Example 161, 8-Chloro-4-[3-(5-hydroxymethyl-[1,2,3]triazol-1-yl)-phenyl]-7-isopropylamino-1,3-dihydro-benzo[b][1,4]diazepin-2-one] | 250 |
| CCCN(C)c1cc2c(cc1Cl)NC(=O)CC(c1cccc(-n3ncnc3CO)c1)=N2 [Example 162, 8-Chloro-7-(methyl-propyl-amino)-4-[3-(5-hydroxymethyl-[1,2,4]triazol-1-yl)-phenyl]-1,3-dihydro-benzo[b][1,4]diazepin-2-one] | 192 |
| CCCN(C)c1cc2c(cc1Cl)NC(=O)CC(c1cccc(-n3ncnc3CN3CCCC3)c1)=N2 [Example 164, 8-Chloro-7-(methyl-propyl-amino)-4-[3-(5-pyrrolidin-1-ylmethyl-[1,2,4]triazol-1-yl)-phenyl]-1,3-dihydro-benzo[b][1,4]diazepin-2-one] | 183 |
| CC(C)CN(C)c1cc2c(cc1Cl)NC(=O)CC(c1cccc(-n3ncnc3CN3CCCC3)c1)=N2 [Example 165, 8-Chloro-7-(isobutyl-methyl-amino)-4-[3-(5-pyrrolidin-1-ylmethyl-[1,2,4]triazol-1-yl)-phenyl]-1,3-dihydro-benzo[b][1,4]diazepin-2-one] | 164 |
| CCCN(C)c1cc2c(cc1Cl)NC(=O)CC(c1cccc(-n3ncnc3CN(C)C)c1)=N2 [Example 166, 8-Chloro-4-[3-(5-dimethylaminomethyl-[1,2,4]triazol-1-yl)-phenyl]-7-(methyl-propyl-amino)-1,3-dihydro-benzo[b][1,4]diazepin-2-one] | 170 |
| CCCN(C)c1cc2c(cc1Cl)NC(=O)CC(c1cccc(-n3ncnc3CNC3CC3)c1)=N2 [Example 167, 8-Chloro-4-[3-(5-cyclopropylaminomethyl-[1,2,4]triazol-1-yl)-phenyl]-7-(methyl-propyl-amino)-1,3-dihydro-benzo[b][1,4]diazepin-2-one] | 123 |
| Cc1cc2c(cc1N(C)CC(C)C)N=C(c1cccc(-n3ncnc3CO)c1)CC(=O)N2 [Example 168, 4-[3-(5-Hydroxymethyl-[1,2,4]triazol-1-yl)-phenyl]-7-(isobutyl-methyl-amino)-8-methyl-1,3-dihydro-benzo[b][1,4]diazepin-2-one] | 191 |
| CCCN(C)c1cc2c(cc1C(F)(F)F)NC(=O)CC(c1cccc(-n3ccnn3)c1)=N2 [Example 170, 7-(Methyl-propyl-amino)-4-(3-[1,2,3]triazol-1-yl-phenyl)-8-trifluoromethyl-1,3-dihydro-benzo[b][1,4]diazepin-2-one] | 147 |
